In test [1] the test system is MicD-F and ArtGox. The test is described as follows: One-pot cyclodehydration and dehydrogenation of peptide substrates by MicD-F and ArtGox, LC-MS. Format: biochemical, Microcystis aeruginosa; Arthrospira platensis. The text has this:
Next, we explored whether MicD-F and ArtGox could act in synergy to convert peptides containing non-α-amino acids at the +1 site directly into the corresponding thiazoles 3(a-i) (FIG. 9A). […] ArtGox efficiently oxidized each thiazoline to the corresponding thiazole in yields that exceeded 97% over the two steps for every example (products 3(a-i)) (FIGS. 9B and D). UHPLC analysis of each reaction mixture confirmed that thiazoles 3a-e were the sole reaction product. Coelution with excess flavin mononucleotide precluded UHPLC analysis of thiazoles 3f-i (FIG. 18).
Reactions were analyzed as described above. Under these conditions, every peptide evaluated was a substrate for MicD-F and a few were substrates for both MicD-F and ArtGox (FIG. 10B-C). Substrates containing β^3-amino acid-, β^2-amino acid-, or cyclic β^2,β^3-amino acids at the −1 site (substrates 4(a-d)), were fully consumed under these conditions (<1% unmodified peptide). […] In contrast, substrate 4b, with geminal β^2-methyl substituents, was converted into a 30/70 mixture of thiazoline 5b and thiazole 6b. Substrates 4e-g containing aramid monomers at the −1 position reacted more slowly under these conditions, producing the analogous thiazoline products in 65-85% yield after 24 h reaction at pH 8 (FIG. 10B-C). […] With the exception of substrate 4c, increasing the pH to 9.0 promoted formation of the desired thiazole product (FIG. 21B-C). However, even under these conditions only substrate 4b (88%) yielded greater than 41% thiazole product (FIG. 21B-C). […] ArtGox appears especially intolerant of substitution or sp^2 hybridization at the β^3-position of substrates at the −1 site.
A typical reaction scale for analysis via LC-MS was 30 μL. Peptide substrate stock (3 L) suspended at 1 mM in 10 mM bicine, 150 mM NaCl, 1 mM TCEP, pH 9.0 was added to 21 L of reaction buffer (7.14 mM ATP, 7.14 mM MgCl2, 2.86 mM FMN, 100 mM bicine, 150 mM NaCl, 1 mM TCEP, pH 8.0 or 9.0). Separately, aliquots of MicD-F (500 M in 20 mM HEPES, 150 mM NaCl, 1 mM TCEP, pH 7.4) and ArtGox (800 M in 20 mM HEPES, 150 mM NaCl, 1 mM TCEP, pH 7.4) were thawed on ice. The thawed enzyme aliquots were then diluted with cold storage buffer (20 mM HEPES, 150 mM NaCl, 1 mM TCEP, pH 7.4) to a concentration equal to 10× the desired enzyme concentration. The peptide and enzyme solutions were then incubated at 37° C. for 15 minutes. After temperature equilibration, enzyme solutions (3 μL of each) were added to the peptide solution and gently pipette mixed. The resulting solution was then incubated at 37° C. for the indicated amount of time before LC-MS analysis.
To remove 6×His-tagged enzymes, Ni-NTA (Qiagen, Hilden, Germany) slurry and crude reaction were mixed 1:1 by volume and incubated on ice for 30 minutes with occasional agitation. The Ni-NTA resin was then removed by centrifugation at 21,300×g for 10 minutes at 4° C. Enzyme-depleted reaction mixture (1 μL) was used for LC-MS analysis which was performed on an Agilent 1290 Infinity II HPLC connected to an Agilent 6530B QTOF AJS-ESI. The mobile phase for LC-MS was water and acetonitrile with 0.1% (v/v) formic acid and a flow rate of 0.7 mL/min. Each sample was injected onto an Eclipse XDB C-18 column (2.1×50 mm, 1.8-Micron, room temperature, Agilent) and separated using a linear gradient from 5 to 95% acetonitrile over 4.5 minutes after an initial hold at 5% acetonitrile for 0.5 minutes. The following parameters were used during acquisition: Fragmentor voltage 175 V, gas temperature 300° C., gas flow 8 L/min, sheath gas temperature 350° C., sheath gas flow 11 L/min, nebulizer pressure 35 psi, skimmer voltage 65 V, Vcap 3500 V, 1 spectra/s.

Test [2] relates to MicD-F. Kind of test: MicD-F-catalyzed cyclodehydration of leader-free peptide substrates, LC-MS. Format: biochemical, Microcystis aeruginosa. As to conditions: pH 8.0, 37° C.; for cyclodehydration by MicD-F: 50 mol % MicD-F, 24 hours. Here is the method: We began by exploring the tolerance of MicD-F for sequences containing non-α-amino acid monomers at the +1 site (FIG. 8A and FIG. 9A-B). A series of nine potential substrates were prepared in which a non-α-amino acid preceded the reaction site (substrates 1(a-i)). Monomers evaluated included arenes, aramids, fluorophores, and linear and cyclic β-amino acids. […] Cyclization was analyzed initially via liquid chromatography-mass spectrometry (LC-MS) and the extent of product formation estimated by integrating the extracted ion chromatogram (FIG. 9B-C). Virtually every substrate examined underwent MicD-F-catalyzed cyclization to the corresponding thiazoline under these conditions. Substrates containing electron-withdrawing or donating aromatic rings, bulky multi-ring systems, and linear and cyclic β-amino acids were all cyclized efficiently by MicD-F, with yields between 91 and 99% (products 2(a-i)). UHPLC analysis of each reaction mixture confirmed that thiazolines 2a-i were the sole reaction products under these conditions (FIG. 16).
Sequence of MicD-F (as listed by the source): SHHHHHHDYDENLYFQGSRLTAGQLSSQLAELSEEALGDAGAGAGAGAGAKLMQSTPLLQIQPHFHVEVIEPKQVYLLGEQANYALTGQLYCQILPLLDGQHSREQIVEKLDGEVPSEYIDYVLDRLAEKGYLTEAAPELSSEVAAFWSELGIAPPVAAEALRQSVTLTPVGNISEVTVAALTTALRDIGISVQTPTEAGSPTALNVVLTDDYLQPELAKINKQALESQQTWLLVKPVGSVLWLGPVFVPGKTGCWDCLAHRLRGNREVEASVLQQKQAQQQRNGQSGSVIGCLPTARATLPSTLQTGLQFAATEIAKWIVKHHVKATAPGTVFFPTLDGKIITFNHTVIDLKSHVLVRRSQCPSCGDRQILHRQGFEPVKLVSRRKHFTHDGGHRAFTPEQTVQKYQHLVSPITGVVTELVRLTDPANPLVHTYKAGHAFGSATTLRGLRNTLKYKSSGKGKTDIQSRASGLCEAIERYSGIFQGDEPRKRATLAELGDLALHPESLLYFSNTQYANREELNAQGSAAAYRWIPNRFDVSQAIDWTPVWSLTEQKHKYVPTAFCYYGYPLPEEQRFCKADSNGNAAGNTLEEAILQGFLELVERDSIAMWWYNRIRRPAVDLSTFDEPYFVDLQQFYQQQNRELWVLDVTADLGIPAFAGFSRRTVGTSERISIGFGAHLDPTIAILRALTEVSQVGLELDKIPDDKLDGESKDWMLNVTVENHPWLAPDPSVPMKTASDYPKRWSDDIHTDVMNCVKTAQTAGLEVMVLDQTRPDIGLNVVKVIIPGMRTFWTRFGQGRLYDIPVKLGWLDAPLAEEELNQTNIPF
A typical reaction scale for analysis via LC-MS was 30 μL. Peptide substrate stock (3 μL) suspended at 1 mM (10 mM bicine, 150 mM NaCl, 1 mM TCEP, pH 9.0) was added to 24 μL of reaction buffer (6.25 mM ATP, 6.25 mM MgCl2, 100 mM bicine, 150 mM NaCl, 1 mM TCEP, pH 8.0 or 9.0). Separately, an aliquot of MicD-F (500 M in 20 mM HEPES, 150 mM NaCl, 1 mM TCEP, pH 7.4) was thawed on ice. The thawed enzyme aliquot was then diluted with cold storage buffer (20 mM HEPES, 150 mM NaCl, 1 mM TCEP, pH 7.4) to a concentration equal to 10× the desired enzyme concentration. The peptide and enzyme solutions were then incubated at 37° C. for 15 minutes. After temperature equilibration, enzyme solution (3 μL) was added to the peptide solution and gently pipette mixed. The resulting solution was then incubated at 37° C. for the indicated amount of time before LC-MS analysis.
To remove 6×His-tagged enzymes, Ni-NTA (Qiagen, Hilden, Germany) slurry and crude reaction were mixed 1:1 by volume and incubated on ice for 30 minutes with occasional agitation. […]

Test [3] has as its system MicD-F and ArtGox. Kind of test: Reaction of protein substrates with MicD-F and ArtGox in tandem, LC-MS deconvoluted mass. Format: biochemical, Microcystis aeruginosa; Arthrospira platensis. Conditions: 50 mol % MicD-F, 80 mol % ArtGox, pH 9.0, 37° C., 24 hours. Here is the method: Reactions of proteins with MicD-F and ArtGox were performed in the manner described above with minor modifications. The substrate stock was a 1 mM solution of protein in 20 mM HEPES, 150 mM NaCl, 1 mM TCEP, pH 7.4. Reactions were carried out at either 25° C. or 37° C. as indicated.
(§1) Unprocessed reaction mixture (1 μL) was used for LC-MS analysis which was performed on an Agilent 1290 Infinity II HPLC connected to an Agilent 6530B QTOF AJS-ESI. The mobile phase for LC-MS was water and acetonitrile with 0.1% (v/v) formic acid and a flow rate of 0.4 mL/min. Each sample was injected onto a Poroshell 300SB-C8 column (2.1×75 mm, 5-Micron, room temperature, Agilent) using a linear gradient from 5 to 55% acetonitrile over 8 minutes after an initial hold at 5% acetonitrile for 2 minutes (0.4 mL/min). The following parameters were used during acquisition: Fragmentor voltage 225 V, gas temperature 300° C., gas flow 10 L/min, sheath gas temperature 350° C., sheath gas flow 11 L/min, nebulizer pressure 35 psi, skimmer voltage 65 V, Vcap 5000 V, 1 spectra/s. Intact protein masses were obtained via deconvolution using the Maximum Entropy algorithm in Mass Hunter Bioconfirm (V10, Agilent).

The subject of test [4] is MicD-F. The test is described as follows: Reaction of protein substrates (mCherry and Rop variants) with MicD-F, LC-MS deconvoluted mass. The test is classed as biochemical, Microcystis aeruginosa. As to conditions: 50 mol % MicD-F, 24 hours. Here is the method:
Reactions of proteins with MicD-F were performed in the manner described above with minor modifications. Namely, the substrate stock was a 1 mM solution of protein in 20 mM HEPES, 150 mM NaCl, 1 mM TCEP, pH 7.4.
as §1

The mark [5] stands for this setting: 50 mol % MicD-F, 8 mol % ArtGox, pH 8.0, 37° C., 24 h.
[6] abbreviates: 50 mol % MicD-F, 8 mol % ArtGox, pH 8.0, 37° C., 24 h, −1 site substrates.

As to IC-[ACHC]-AYDG [substrate 4c], in test [1] (setting [5]), the “conversion into thiazoline” value is recorded as “converted cleanly” and the “thiazole formation” value is reported as “no”.
With IC-[ACPC]-AYDG [substrate 4d], in test [1] (setting [5]), the “conversion into thiazoline” value is “converted cleanly” and the “thiazole formation” value is “no”.
Regarding IC-[B2-Dimethyl]-AYDG [substrate 4b], in test [1] (setting [6]), the “yield of thiazole product” value is listed as 70% and the “yield of thiazoline product” value was 30%. Moreover, the “yield of thiazole product” value in test [1] (50 mol % MicD-F, 8 mol % ArtGox, pH 9.0, 37° C., 24 h, −1 site substrates) is listed as 88%.
Regarding IC-[B3-HIle]-AYDG [substrate 4a], in test [1] (setting [5]), the “conversion into thiazoline” value is reported as “converted cleanly” and the “thiazole formation” value is “little”.
As for ICAYDG [reference compound], the “conversion by MicD-F” value in test [2] (5 mol % MicD-F, 4 h) is “complete conversion”. Besides, the “two-step conversion into thiazole” value in test [1] (5 mol % MicD-F, 40 mol % ArtGox, pH 8.0, 37° C., 16 h) is on record as “complete two-step conversion”.
Consider “ICIAYDG [model peptide with α-amino acid Ile between the site of cyclization and the AYD motif, reference compound]”, for which the “cyclodehydration by MicD-F” value in test [2] is “complete reaction”. The “thiazole formation” value in test [1] (setting [5]) is reported as “complete conversion”.
As to ITAYDG, in test [2], the “cyclodehydration by MicD-F” value is listed as “significant cyclodehydration”.
In the case of “mCherryC+: mCherry variant with MCAYDG appended to the C-terminus, SEQ ID NO: 9”, the “thiazole installation (mass shift relative to MicD-F only)” value in test [3] is listed as “expected −2 Da shift”. For the same substance, the “cyclodehydration of mCherry variants to thiazoline (loss of water)” value is on record as “virtually complete conversion” in test [4] (pH 9.0, 37° C.) and “nearly completely converted” in test [4] (pH 9.0, 42° C.).

Values taken from patent publication US20250179550A1, “Methods to imbue polymeric materials with new structures and functions” (The Regents of the University of California, priority 2022, published 2025).
